Key:
5637 (Bladder Carcinoma) = assay: Bliss excess, mean over the matrix (fraction); higher = more synergy
Summary of the method: (§1)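 Bliss excess equals the observed combination effect minus the expected value EA + EB − EA·EB, where EA and EB are the effects of each agent alone. Combination Emax is the second-highest inhibition within the matrix. Inhibition was scaled from CellTiter-Glo 2.0 luminescence, with 0 set by vehicle wells and 1 by blank wells, after 72 hours of two-drug dosing of cells plated in 1536-well plates.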

A101D (Melanoma) = assay: as above
Summary of the method: as §1

A204 (Rhabdomyosarcoma) = assay: as above
Summary of the method: as §1

[1] = test system: A253 (Head and Neck Carcinoma); assay: as above
Summary of the method: as §1

[2] = test system: DMS-53 (Small Cell Lung Carcinoma); assay: as above
Summary of the method: as §1

[3] = test system: GA-10 (Burkitt's Lymphoma); assay: as above
Summary of the method: as §1

[4] = test system: HCC1428 (Breast Carcinoma); assay: as above
Summary of the method: as §1

KP-N-YN (Neuroblastoma) [5] = assay: as above
Summary of the method: as §1

[6] = test system: NCI-H2228 (Lung Adenocarcinoma); assay: as above
Summary of the method: as §1

[7] = test system: TE-10 (Esophageal Squamous Cell Carcinoma); assay: as above
Summary of the method: as §1

[8] = test system: huH-1 (Hepatocellular Carcinoma); assay: as above
Summary of the method: as §1

KP-N-YN (Neuroblastoma) [9] = assay: combination Emax (second highest fraction inhibited in the dose matrix, 72 h); higher = more inhibition; extreme values may be limits of the assay
Summary of the method: as §1

| SMILES | Bliss excess (5637 (Bladder Carcinoma)) | Bliss excess (A101D (Melanoma)) | Bliss excess (A204 (Rhabdomyosarcoma)) | Bliss excess [1] | Bliss excess [2] | Bliss excess [3] | Bliss excess [4] | Bliss excess (KP-N-YN (Neuroblastoma) [5]) | Bliss excess [6] | Bliss excess [7] | Bliss excess [8] | combination Emax (KP-N-YN (Neuroblastoma) [9]) |
| --- | --- | --- | --- | --- | --- | --- | --- | --- | --- | --- | --- | --- |
| Cc1cc2ncnn2cc1Nc1ncc2c(n1)n(C1CCOCC1)c(=O)n2C [AZD7648] + O=C(c1cc(Cc2n[nH]c(=O)c3ccccc23)ccc1F)N1CCN(C(=O)C2CC2)CC1 [Olaparib] (first compound max 10 µM, 7x7, partner max 10 µM) | -0.0198 | -0.0478 | -0.0802 | -0.0419 | -0.0266 | -0.0398 | -0.0562 | 0.0332 | -0.0728 | 0.011 | -0.0557 | 0.346 |
| Cc1cc2ncnn2cc1Nc1ncc2c(n1)n(C1CCOCC1)c(=O)n2C [AZD7648] + C[C@@H]1COCCN1C2=NC(=NC(=C2)C3(CC3)[S@](=N)(=O)C)C4=C5C=CNC5=NC=C4 [AZD6738] (first compound max 10 µM, 7x7, partner max 10 µM) | -0.0289 | -0.0272 | -0.0105 | 0.0402 | 0.0179 | 0.0131 | -0.0086 | -0.0083 | -0.0156 | 0.0327 | 0.02 | 0.947 |
| Cc1cc2ncnn2cc1Nc1ncc2c(n1)n(C1CCOCC1)c(=O)n2C [AZD7648] + C=CCn1c(=O)c2cnc(Nc3ccc(N4CCN(C)CC4)cc3)nc2n1-c1cccc(C(C)(C)O)n1 [AZD1775] (first compound max 10 µM, partner max 1 µM) | 0.0026 | 0.0275 | -0.0041 | 0.0493 | 0.0149 | 0.037 | 0.0179 | -0.0428 | 0.0384 | 0.0053 | 0.0313 | 0.942 |
| CN(CCO)CC[C@H](CSc1ccccc1)Nc1ccc(S(=O)(=O)NC(=O)c2ccc(N3CCC([C@@H](O)c4ccccc4-c4ccc(Cl)cc4)CC3)cc2)cc1S(=O)(=O)C(F)(F)F [AZD4320] + C[C@@H](Nc1cc(F)cc(F)c1)c1cc(C(=O)N(C)C)cc2c(=O)cc(N3CCOCC3)oc12 [AZD8186] (first compound max 1 µM, 7x7, partner max 3 µM) | -0.0028 | 0.0831 | 0.0119 | 0.0229 | 0.0138 | 0.0166 | 0.0149 | -0.0097 | -0.0301 | 0.0157 | -0.0461 | – |
| Cc1cc2ncnn2cc1Nc1ncc2c(n1)n(C1CCOCC1)c(=O)n2C [AZD7648] + CCN(CCO)CCCOc1ccc2c(Nc3cc(CC(=O)Nc4cccc(F)c4)[nH]n3)ncnc2c1 [AZD2811] (first compound max 10 µM, 7x7, partner max 1 µM) | 0.0149 | -0.0404 | 0.0034 | 0.0411 | -0.0061 | 0.112 | 0.0436 | 0.0461 | -0.0127 | 0.043 | 0.0008 | 0.6 |
| CN(CCO)CC[C@H](CSc1ccccc1)Nc1ccc(S(=O)(=O)NC(=O)c2ccc(N3CCC([C@@H](O)c4ccccc4-c4ccc(Cl)cc4)CC3)cc2)cc1S(=O)(=O)C(F)(F)F [AZD4320] + C=CCn1c(=O)c2cnc(Nc3ccc(N4CCN(C)CC4)cc3)nc2n1-c1cccc(C(C)(C)O)n1 [AZD1775] (first compound max 1 µM, partner max 1 µM) | 0.0437 | 0.14 | -0.0304 | 0.0503 | 0.0817 | -0.0167 | 0.0369 | 0.0631 | -0.0344 | -0.0084 | 0.01 | – |
| COc1cc2c(cc1OCCCCCOc1cc3c(cc1OC)C(=O)N1C=C(C)C[C@H]1C=N3)N=C[C@@H]1CC(C)=CN1C2=O [SG3199] + O=C(c1cc(Cc2n[nH]c(=O)c3ccccc23)ccc1F)N1CCN(C(=O)C2CC2)CC1 [Olaparib] (first compound max 0.001 µM, 7x7, partner max 10 µM) | -0.0278 | -0.0365 | -0.0686 | -0.0426 | -0.0259 | -0.0335 | -0.0676 | -0.0387 | -0.0607 | -0.0402 | -0.0278 | 0.341 |
| Cc1cc2ncnn2cc1Nc1ncc2c(n1)n(C1CCOCC1)c(=O)n2C [AZD7648] + CN(C)CCCOc1ccc(-c2ccc3ncc4c(c3c2)n(C2CCOCC2)c(=O)n4C)cn1 [AZD0156] (first compound max 10 µM, 7x7, partner max 1 µM) | -0.0004 | -0.0016 | -0.0372 | 0.0149 | -0.0087 | -0.0067 | -0.0052 | 0.0088 | 0.0707 | -0.0023 | 0.0674 | 0.265 |
| CN(CCO)CC[C@H](CSc1ccccc1)Nc1ccc(S(=O)(=O)NC(=O)c2ccc(N3CCC([C@@H](O)c4ccccc4-c4ccc(Cl)cc4)CC3)cc2)cc1S(=O)(=O)C(F)(F)F [AZD4320] + Cc1cc2ncnn2cc1Nc1ncc2c(n1)n(C1CCOCC1)c(=O)n2C [AZD7648] (first compound max 1 µM, 7x7, partner max 10 µM) | -0.0359 | -0.0275 | -0.0551 | -0.0253 | 0.0475 | -0.0669 | 0.025 | -0.0238 | -0.0231 | -0.0276 | -0.0586 | – |
